Data: ChEMBL document CHEMBL1201862, “PubChem BioAssay data set” (2004)
Activity calls are given as the source filed them.

What was measured:
[1] = A Cell Based Secondary Assay To Explore Cytotoxicity of Compounds that Sensitize Mycobacterium Tuberculosis to Beta-Lactam Antibiotics.; assay type: functional
[2] = system: Streptococcus sp. 'group A'; test: Streptococcus pyogenes SK(-)GAS viability under kanamycin – luminescence, BacTiterGlo, confirmation, counter-screen for streptokinase expression inhibitor project, dose response (AID 1900); assay type: functional, organism-based; details: Streptococcus sp. 'group A'
[3] = molecular target: T1, Streptokinase A (Streptococcus pyogenes serotype M1, UniProt P10520); test: viability-normalized secreted streptokinase activity reduction – plasminogen activation absorbance, OD405, dose response (AID 1914); assay type: functional, Streptococcus pyogenes M1 GAS;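 further: secreted streptokinase activity via plasminogen activation per viability signal from cell pellet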
T1 sequence (P10520 whole entry): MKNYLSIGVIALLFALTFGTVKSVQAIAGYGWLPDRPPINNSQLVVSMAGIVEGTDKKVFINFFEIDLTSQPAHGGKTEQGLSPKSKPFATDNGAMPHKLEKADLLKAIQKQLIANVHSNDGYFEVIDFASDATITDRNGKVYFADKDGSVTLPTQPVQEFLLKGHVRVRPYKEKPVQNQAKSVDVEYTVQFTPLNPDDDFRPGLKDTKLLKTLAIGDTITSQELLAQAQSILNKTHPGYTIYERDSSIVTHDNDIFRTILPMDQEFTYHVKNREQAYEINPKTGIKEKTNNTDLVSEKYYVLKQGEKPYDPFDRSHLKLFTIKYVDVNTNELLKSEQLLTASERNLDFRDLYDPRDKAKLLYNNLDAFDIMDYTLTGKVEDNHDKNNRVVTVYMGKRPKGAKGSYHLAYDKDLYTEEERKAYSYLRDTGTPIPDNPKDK

[4] = microbe, parasite or virus in culture; assay type: functional; details: Mycobacterium tuberculosis
[5] = system: Streptococcus; test: GAS UMAA2166 growth inhibition – luminescence, BacTiterGlo, counter-screen for streptokinase expression inhibitor project, dose response (AID 1915); assay type: functional, organism-based; details: Streptococcus;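 further: potency for reduction of bacterial viability or growth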
[6] = Luminescence Cell-Based Dose Retest to Confirm Inhibitors of Cancer Stem Cells. [Related pubchem assays (depositor defined):AID2717, AID2721]; assay type: functional, Homo sapiens; details: Homo sapiens
[7] = molecular target: T2, Beta-galactosidase (Escherichia coli, UniProt Q8VNN2); test: detection-enzyme interference by beta-gal modulators – biochemical, E. coli enzyme, set 3, artefact control for CCR6 antagonist project, dose response (AID 504712); assay type: functional
T2 sequence (Q8VNN2 whole entry): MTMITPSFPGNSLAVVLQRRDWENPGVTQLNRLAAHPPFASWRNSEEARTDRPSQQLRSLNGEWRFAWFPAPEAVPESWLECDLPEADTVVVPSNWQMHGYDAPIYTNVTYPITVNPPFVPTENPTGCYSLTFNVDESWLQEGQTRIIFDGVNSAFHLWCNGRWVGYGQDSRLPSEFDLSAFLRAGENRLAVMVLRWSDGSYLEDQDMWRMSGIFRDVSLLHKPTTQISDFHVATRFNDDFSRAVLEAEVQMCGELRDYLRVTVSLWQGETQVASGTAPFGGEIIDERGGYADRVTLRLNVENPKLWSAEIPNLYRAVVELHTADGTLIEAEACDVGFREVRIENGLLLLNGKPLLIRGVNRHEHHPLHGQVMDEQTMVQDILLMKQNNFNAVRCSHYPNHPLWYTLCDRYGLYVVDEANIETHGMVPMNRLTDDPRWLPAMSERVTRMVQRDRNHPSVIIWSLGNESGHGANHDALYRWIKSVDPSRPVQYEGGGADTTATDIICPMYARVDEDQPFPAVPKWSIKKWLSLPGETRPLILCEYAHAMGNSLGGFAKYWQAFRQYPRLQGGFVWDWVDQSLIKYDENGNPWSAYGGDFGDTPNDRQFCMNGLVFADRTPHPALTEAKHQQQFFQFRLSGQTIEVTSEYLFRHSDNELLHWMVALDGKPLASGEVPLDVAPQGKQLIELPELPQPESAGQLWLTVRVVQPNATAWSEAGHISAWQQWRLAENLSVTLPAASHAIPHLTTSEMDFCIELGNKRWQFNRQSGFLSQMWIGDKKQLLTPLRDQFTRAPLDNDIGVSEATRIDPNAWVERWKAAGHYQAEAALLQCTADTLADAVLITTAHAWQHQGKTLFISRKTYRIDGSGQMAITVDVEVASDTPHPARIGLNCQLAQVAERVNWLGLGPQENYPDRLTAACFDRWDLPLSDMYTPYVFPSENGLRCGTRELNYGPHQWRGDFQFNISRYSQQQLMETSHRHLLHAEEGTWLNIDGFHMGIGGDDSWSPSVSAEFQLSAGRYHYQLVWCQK

[8] = system: INS1; test: INS-1E survival protection against cytokine death – cell-based, luminescence, retest, dose response (AID 449756); assay type: functional; details: Rattus norvegicus;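 further: cell death triggered by IL-1 beta plus TNF-alpha plus IFN-gamma mixture; protective hits raise ATP signal compared with cytokine alone wells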
[9] = molecular target: Glucose-6-phosphate 1-dehydrogenase (Homo sapiens, UniProt P11413); test: inhibition of Homo sapiens G6PD, dose series – biochemical, fluorescence, selectivity assay for P. falciparum G6PD inhibitor project, dose response (AID 504792); assay type: functional
[10] = molecular target: DNA dC->dU-editing enzyme APOBEC-3G (Homo sapiens, UniProt Q9HC16); test: Dose Response confirmation of small molecule APOBEC3G DNA Deaminase Inhibitors via a fluorescence-based single-stranded DNA deaminase assay. [Related pubchem assays (depositor defined):AID493012, AID493028]; assay type: functional
DNA dC->dU-editing enzyme APOBEC-3G, sequence (Q9HC16 whole entry): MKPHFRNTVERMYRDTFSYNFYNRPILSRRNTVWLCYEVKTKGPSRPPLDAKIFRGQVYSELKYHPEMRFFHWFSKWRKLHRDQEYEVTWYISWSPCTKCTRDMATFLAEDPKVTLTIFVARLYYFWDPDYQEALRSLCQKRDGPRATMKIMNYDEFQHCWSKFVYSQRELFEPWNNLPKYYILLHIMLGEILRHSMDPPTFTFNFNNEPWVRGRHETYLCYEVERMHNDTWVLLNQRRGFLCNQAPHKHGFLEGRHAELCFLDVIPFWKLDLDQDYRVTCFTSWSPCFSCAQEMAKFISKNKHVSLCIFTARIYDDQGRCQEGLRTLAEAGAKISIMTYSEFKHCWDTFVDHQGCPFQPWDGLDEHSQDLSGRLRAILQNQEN

[11] = molecular target: T3, Cytochrome P450 3A4 (Homo sapiens, UniProt P08684)
T3 sequence (P08684 whole entry): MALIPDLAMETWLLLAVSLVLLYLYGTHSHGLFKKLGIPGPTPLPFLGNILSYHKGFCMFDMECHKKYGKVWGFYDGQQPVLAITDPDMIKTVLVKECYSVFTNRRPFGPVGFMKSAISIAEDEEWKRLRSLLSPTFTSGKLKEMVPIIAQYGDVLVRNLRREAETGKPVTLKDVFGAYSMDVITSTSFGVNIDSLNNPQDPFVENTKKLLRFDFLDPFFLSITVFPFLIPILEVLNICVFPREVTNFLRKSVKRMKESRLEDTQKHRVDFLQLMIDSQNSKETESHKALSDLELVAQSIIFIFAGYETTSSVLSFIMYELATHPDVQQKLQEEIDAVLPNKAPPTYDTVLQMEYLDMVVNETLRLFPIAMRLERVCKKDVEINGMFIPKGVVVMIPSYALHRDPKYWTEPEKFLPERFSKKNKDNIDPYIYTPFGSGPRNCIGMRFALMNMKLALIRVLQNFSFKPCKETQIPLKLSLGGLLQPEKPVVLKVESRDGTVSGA

[12] = molecular target: T3, Cytochrome P450 3A4; details: Potency
[13] = molecular target: Cytochrome P450 2C9 (Homo sapiens, UniProt P11712); details: Potency
Cytochrome P450 2C9, sequence (P11712 whole entry): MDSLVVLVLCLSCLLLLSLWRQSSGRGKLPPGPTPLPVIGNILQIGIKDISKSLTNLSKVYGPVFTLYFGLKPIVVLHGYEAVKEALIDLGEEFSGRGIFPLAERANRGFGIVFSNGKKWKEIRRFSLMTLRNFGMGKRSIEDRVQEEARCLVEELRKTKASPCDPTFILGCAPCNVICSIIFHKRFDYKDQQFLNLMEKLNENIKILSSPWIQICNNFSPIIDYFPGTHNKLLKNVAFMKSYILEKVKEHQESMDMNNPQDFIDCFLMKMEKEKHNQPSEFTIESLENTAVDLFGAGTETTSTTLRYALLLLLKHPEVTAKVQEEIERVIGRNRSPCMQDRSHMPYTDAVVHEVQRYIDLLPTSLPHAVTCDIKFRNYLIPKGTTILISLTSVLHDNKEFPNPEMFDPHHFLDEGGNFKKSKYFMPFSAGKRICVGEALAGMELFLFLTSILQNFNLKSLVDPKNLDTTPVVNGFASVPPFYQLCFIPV

[14] = molecular target: Trypsin (Sus scrofa, UniProt P00761); test: trypsin protease activity blockade – biochemical, quenched peptide fluorescence, cherry-pick, selectivity assay for Rce1 protease inhibitor project, dose response (AID 488789)
Trypsin, sequence (P00761 whole entry): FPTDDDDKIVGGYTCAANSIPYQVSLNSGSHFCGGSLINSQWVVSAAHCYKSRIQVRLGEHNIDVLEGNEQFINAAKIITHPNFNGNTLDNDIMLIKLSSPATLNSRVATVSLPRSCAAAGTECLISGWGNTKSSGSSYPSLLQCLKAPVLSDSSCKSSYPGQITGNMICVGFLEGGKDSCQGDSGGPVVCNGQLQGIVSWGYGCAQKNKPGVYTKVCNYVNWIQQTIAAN

[15] = molecular target: T4, SUMO-activating enzyme (Homo sapiens, UniProt Q9UBT2); test: blockers of UBC9-mediated SUMO conjugation – biochemical, AlphaScreen, SUMOylation inhibitor project, confirmation (AID 2018); assay type: functional
T4 sequence (Q9UBE0 whole entry): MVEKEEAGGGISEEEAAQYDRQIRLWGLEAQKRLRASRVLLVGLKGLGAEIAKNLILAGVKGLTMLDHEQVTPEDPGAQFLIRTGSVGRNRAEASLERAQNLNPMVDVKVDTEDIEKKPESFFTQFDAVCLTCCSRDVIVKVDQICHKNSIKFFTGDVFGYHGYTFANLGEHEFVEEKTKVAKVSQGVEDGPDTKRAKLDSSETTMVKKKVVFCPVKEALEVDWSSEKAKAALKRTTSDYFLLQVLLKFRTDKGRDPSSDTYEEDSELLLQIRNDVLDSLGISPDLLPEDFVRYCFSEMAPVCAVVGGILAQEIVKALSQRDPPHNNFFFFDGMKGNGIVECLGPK
T4 sequence (Q9UBT2 whole entry): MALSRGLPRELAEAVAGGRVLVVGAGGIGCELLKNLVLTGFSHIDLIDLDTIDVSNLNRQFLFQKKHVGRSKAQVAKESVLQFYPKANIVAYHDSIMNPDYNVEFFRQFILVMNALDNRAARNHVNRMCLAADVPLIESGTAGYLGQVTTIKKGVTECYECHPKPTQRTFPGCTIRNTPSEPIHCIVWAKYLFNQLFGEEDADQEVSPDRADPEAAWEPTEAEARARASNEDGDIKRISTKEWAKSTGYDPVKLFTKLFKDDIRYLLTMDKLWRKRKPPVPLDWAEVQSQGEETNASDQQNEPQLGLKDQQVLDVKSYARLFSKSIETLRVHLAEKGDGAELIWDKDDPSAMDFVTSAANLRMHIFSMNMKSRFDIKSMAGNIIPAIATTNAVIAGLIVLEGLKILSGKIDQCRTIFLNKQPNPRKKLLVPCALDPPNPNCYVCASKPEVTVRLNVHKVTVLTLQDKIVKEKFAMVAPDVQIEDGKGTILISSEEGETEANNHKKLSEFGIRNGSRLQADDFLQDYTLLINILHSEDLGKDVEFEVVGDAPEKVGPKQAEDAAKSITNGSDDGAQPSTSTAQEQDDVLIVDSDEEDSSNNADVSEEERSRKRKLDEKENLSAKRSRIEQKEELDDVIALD

[16] = molecular target: T5, Voltage-gated N-type calcium channel alpha-1B subunit/Amyloid beta A4 precursor protein-binding family A member 1 (Homo sapiens, UniProt Q00975+Q02410); assay type: protein assay
[17] = molecular target: T6, Estrogen receptor (Homo sapiens, UniProt P03372);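 further: potency for inhibiting coactivator peptide recruitment to the receptor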
T6 sequence (P03372 whole entry): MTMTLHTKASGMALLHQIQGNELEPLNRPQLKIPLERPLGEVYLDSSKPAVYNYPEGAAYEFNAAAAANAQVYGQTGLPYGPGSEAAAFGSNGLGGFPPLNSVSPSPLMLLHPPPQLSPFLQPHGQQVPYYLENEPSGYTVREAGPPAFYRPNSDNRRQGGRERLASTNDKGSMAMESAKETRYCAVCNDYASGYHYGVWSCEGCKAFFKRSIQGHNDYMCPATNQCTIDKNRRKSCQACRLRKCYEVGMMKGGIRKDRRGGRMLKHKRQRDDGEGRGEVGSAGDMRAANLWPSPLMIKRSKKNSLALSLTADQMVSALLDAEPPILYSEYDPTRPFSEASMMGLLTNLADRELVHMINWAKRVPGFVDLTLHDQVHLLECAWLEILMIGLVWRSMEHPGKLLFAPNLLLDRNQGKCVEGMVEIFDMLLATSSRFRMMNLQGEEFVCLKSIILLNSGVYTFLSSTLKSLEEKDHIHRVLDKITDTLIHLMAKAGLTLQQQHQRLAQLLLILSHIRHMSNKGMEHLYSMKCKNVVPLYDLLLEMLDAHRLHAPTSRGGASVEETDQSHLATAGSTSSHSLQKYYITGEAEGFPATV

[18] = molecular target: T4, SUMO-activating enzyme; test: blockers of SAE1/SAE2–UBC9 SUMO transfer – biochemical, HTRF, uHTS, primary screen (AID 2006); assay type: protein-complex assay
[19] = molecular target: T5, Voltage-gated N-type calcium channel alpha-1B subunit/Amyloid beta A4 precursor protein-binding family A member 1; assay type: protein assay; remark: listed apart in the source
[20] = THP-1 cell cytotoxicity, dose response, cytotoxicity control for non-replicating M. tuberculosis project (AID 489025); assay type: functional
[21] = Vero E6 cell cytotoxicity, dose response, cytotoxicity control for non-replicating M. tuberculosis project, secondary assay (AID 492998); assay type: functional, VeroE6; details: Vero C1008
[22] = molecular target: Nonstructural protein 1 (Influenza A virus, UniProt Q194T2); assay type: functional, Influenza A virus (A/California/07/2009(H1N1))
Nonstructural protein 1, sequence (Q194T2 whole entry): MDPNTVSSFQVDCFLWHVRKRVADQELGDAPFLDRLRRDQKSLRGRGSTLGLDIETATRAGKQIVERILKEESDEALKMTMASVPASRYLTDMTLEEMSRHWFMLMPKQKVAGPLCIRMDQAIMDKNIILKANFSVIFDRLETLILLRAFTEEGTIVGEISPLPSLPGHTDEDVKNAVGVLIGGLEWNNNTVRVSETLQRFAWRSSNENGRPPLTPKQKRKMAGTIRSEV

[23] = cells; assay type: functional
[24] = Luminescence Cell-Based Dose Confirmation HTS to Identify Activators of 5'UTR Stem-Loop Driven Alpha-Synuclein mRNA Translation in H4 Neuroglioblastoma Cells. [Related pubchem assays: 1829 (Project Summary), 1814 (Primary HTS)]; assay type: functional
[25] = Luminescence Cell-Based Dose Response HTS to Identify Activators of Luciferase Translation or Activity in H4 […] Cells. [Related pubchem assays: 1829 (Project Summary), 1814 (Primary HTS)]; assay type: functional
[26] = system: H4; test: Luminescence Cell-Based Dose Response HTS to Identify Activators of 5'UTR Stem-Loop Driven Prion Protein mRNA Translation in H4 Neuroglioblastoma Cells. [Related pubchem assays: 1829 (Project Summary), 1814 (Primary HTS)]; assay type: functional; details: Homo sapiens
[27] = molecular target: Protein-tyrosine kinase 2-beta (Homo sapiens, UniProt Q14289);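 further: potency of inhibitors of PYK2 kinase phosphorylation of poly-GT substrate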
[28] = molecular target: Dual specificity tyrosine-phosphorylation-regulated kinase 1A (Rattus norvegicus, UniProt Q63470); assay type: biochemical, Homo sapiens
[29] = molecular target: T7, Methionyl-tRNA synthetase, putative (Trypanosoma brucei brucei, UniProt Q38C91); assay type: functional, Trypanosoma brucei brucei strain 927/4 GUTat10.1
T7 sequence (Q38C91 whole entry): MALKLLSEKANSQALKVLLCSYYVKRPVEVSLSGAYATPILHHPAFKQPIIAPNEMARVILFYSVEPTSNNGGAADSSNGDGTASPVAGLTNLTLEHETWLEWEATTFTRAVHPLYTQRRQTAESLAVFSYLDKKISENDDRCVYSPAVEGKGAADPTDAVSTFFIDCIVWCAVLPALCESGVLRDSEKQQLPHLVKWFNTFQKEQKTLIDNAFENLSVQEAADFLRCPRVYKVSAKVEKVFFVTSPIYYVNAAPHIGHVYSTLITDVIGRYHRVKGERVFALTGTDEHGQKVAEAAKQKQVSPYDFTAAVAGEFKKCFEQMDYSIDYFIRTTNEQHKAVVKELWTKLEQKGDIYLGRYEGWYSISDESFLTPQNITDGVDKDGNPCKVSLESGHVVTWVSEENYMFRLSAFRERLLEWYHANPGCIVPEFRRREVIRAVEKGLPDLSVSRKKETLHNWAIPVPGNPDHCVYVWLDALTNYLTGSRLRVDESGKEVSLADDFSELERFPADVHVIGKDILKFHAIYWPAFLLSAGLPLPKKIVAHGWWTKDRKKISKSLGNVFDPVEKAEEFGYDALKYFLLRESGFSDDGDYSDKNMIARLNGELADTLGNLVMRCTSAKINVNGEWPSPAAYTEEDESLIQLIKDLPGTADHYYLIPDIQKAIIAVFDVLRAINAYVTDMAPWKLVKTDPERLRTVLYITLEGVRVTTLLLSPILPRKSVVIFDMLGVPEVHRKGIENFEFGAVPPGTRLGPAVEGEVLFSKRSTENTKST

[30] = Counterscreen for inhibitors of Trypanosoma brucei methionyl tRNA synthetase (MetRS): Luminescence-based cell-based high throughput dose response assay to identify compounds that are cytotoxic to Jurkat human T lymphocyte cells.; assay type: functional
[31] = molecular target: T7, Methionyl-tRNA synthetase, putative; assay type: functional, Trypanosoma brucei brucei strain 927/4 GUTat10.1; remark: listed apart in the source
[32] = molecular target: T8, Estrogen receptor beta (Homo sapiens, UniProt Q92731);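 further: recombinant ER-beta bound to coactivator SRC1 peptide in presence of estradiol agonist; inhibitors block coactivator peptide binding and lower the FRET signal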
T8 sequence (Q92731 whole entry): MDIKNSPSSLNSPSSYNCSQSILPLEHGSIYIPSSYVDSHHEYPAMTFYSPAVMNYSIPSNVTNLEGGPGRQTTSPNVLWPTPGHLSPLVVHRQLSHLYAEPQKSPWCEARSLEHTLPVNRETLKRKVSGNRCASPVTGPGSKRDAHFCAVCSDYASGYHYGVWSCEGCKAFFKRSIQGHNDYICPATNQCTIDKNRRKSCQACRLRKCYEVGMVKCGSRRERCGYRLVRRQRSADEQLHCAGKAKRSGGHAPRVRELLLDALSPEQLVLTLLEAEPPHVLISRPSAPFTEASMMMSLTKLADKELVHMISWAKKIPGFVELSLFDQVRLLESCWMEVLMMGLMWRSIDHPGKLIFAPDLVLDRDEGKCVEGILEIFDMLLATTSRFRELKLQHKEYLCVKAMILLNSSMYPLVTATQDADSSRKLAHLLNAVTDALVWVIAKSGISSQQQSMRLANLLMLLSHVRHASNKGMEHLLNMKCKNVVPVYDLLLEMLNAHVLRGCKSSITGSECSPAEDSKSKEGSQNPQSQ

[33] = molecular target: T8, Estrogen receptor beta; test: blockers of SRC-3 recruitment to ERβ – biochemical, ELISA, streptavidin-HRP readout, orthogonal assay, confirmation (AID 1060)
[34] = molecular target: T9, Kappa-type opioid receptor (Homo sapiens, UniProt P41145); assay type: functional
T9 sequence (P41145 whole entry): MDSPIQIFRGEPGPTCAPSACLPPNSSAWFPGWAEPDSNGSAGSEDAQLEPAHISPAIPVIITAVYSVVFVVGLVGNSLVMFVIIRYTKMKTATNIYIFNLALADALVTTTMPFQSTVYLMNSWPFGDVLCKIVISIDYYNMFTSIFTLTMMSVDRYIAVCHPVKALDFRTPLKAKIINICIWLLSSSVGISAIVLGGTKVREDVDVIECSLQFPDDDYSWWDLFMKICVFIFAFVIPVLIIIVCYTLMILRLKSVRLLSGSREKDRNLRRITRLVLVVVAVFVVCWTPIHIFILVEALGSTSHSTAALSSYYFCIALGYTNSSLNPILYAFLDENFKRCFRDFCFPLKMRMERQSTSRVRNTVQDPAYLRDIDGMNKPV

[35] = molecular target: T2, Beta-galactosidase; assay type: functional
[36] = molecular target: T9, Kappa-type opioid receptor; assay type: functional; remark: listed apart in the source

## Cc1cc(SCC(=O)c2ccccc2)n2ncc(-c3ccccc3)c2n1
[1]
  CC50: 25.8 µM (active)

## CN(/N=C/c1cc(Br)cc(Br)c1O)c1cccc(C(F)(F)F)n1
[2]
  EC50: 0.58 µM (active)
[3]
  EC50: > 150 µM (not active)
[4]
  CC50: 17.6 µM (active)
[5]
  EC50: 9.95 µM (active)
[6]
  AC50: 5.94 µM (active)
[7]
  IC50: > 66.6 µM (inactive)
[8]
  AC50: 10.7 µM (active)

## CCC(C)C(NC(N)=O)C(=O)Nc1ccc(OCc2ccccc2)cc1 (stereo unspecified)
[1]
  CC50: > 40 µM (active)

## Cc1ccc(NNS(=O)(=O)c2ccc(C)cc2)cc1
[9]
  IC50: > 80 µM (inactive)
[10]
  IC50: 37.9 µM (active)
[11]
  AC50: 28.2 µM (inconclusive)

## CC1CCC2C(=O)N3C(CCC(C)[C@H]3c3ccccc3Br)C(=O)N2C1c1ccccc1Br (stereo partly specified)
[12]
  AC50: 1.26 µM (inconclusive)
[13]
  AC50: 6.31 µM (inconclusive)

## CC1CCc2c(sc(NC(=O)COC(=O)c3ccccc3NCc3ccco3)c2C#N)C1 (stereo unspecified)
[14]
  AC50: 9.07 µM (active)

## C=CCC1C=CC(Oc2ccc(F)cc2C)C(CO)O1 (stereo unspecified)
[13]
  AC50: 3.98 µM (inconclusive)

## CCc1ccc2nc(NC(=O)c3ccc4c(O)nc(CN5CCOCC5)nc4c3)sc2c1
[15]
  IC50: 7.19 µM (active)
[16]
  IC50: 6.59 µM (active)
[17]
  IC50: 8.23 µM (active)
[18]
  IC50: 3.54 µM (active)
[19]
  IC50: > 50 µM (inactive)

## CCOc1ccc(C(=O)N/N=C/c2cccc3cccnc23)cc1
[20]
  CC50: 11.5 µM (active)
[7]
  IC50: > 66.6 µM (inactive)
[21]
  CC50: > 20 µM (active)
[22]
  IC50: 11.4 µM (active)
[23]
  IC50: 2.75 µM (active)

## c1ccc2c3c([nH]c2c1)-c1n[nH]cc1CC3
[24]
  EC50: > 120 µM (not active)
[25]
  EC50: 18.7 µM (active)
[26]
  EC50: > 120 µM (not active)
[27]
  IC50: 10.5 µM (not active)
[28]
  AC50: 3.79 µM (active)
[29]
  IC50: 26.7 µM (inactive)
[30]
  IC50: 83.4 µM (inactive)
[31]
  IC50: 52.1 µM (inactive)

## O=C(COC(=O)c1cccc(S(=O)(=O)N2CCc3ccccc3C2)c1)NCc1ccco1
[17]
  IC50: 25 µM (active)
[32]
  IC50: > 50 µM (not active)
[33]
  IC50: 0.0242 µM (not active)

## CC(C)[C@@]1(NC(=O)[C@@H]2C=C3c4cccc5[nH]cc(c45)C[C@@H]3N(C)C2)O[C@]2(O)[C@H]3CCCN3C(=O)[C@H](Cc3ccccc3)N2C1=O
[13]
  AC50: 10 µM (inconclusive)

## Cc1cc2nc(N3C(=O)CNC3=S)sc2cc1C
[2]
  EC50: 3.98 µM (active)
[3]
  EC50: > 150 µM (not active)
[34]
  IC50: 8.55 µM (active)
[35]
  EC50: > 31.5 µM (inactive)
[36]
  IC50: > 32 µM
[5]
  EC50: 10.6 µM (active)
[7]
  IC50: > 66.6 µM (inactive)

## CCN(CC)c1ccc(C(=O)n2cnc3ccccc32)cc1
[1]
  CC50: > 40 µM (active)
